Measurements: the NIST ThermoML archive (doi:10.1021/je700096m)
± gives the expanded uncertainty stated by the source.

Conditions: Liquid

CCCCCl [1-chlorobutane]
mass density [kg/m3]
Conditions | 288.15 K | 298.15 K | 308.15 K | 318.15 K
100 kPa | 891.8 ± 0.2 | 880.6 ± 0.3 | 870 ± 0.3 | 859.1 ± 0.3
2000 kPa | 893.6 ± 0.3 | 882.6 ± 0.3 | 872.1 ± 0.3 | 861.5 ± 0.3
4000 kPa | – | – | – | 863.8 ± 0.3
4100 kPa | 895.6 ± 0.3 | 884.9 ± 0.3 | 874.4 ± 0.3 | –
6100 kPa | 897.5 ± 0.3 | 886.8 ± 0.3 | 876.5 ± 0.3 | 866.3 ± 0.3
8100 kPa | 899.4 ± 0.3 | 888.7 ± 0.3 | 878.6 ± 0.3 | 868.7 ± 0.3
10100 kPa | 901.3 ± 0.3 | 890.9 ± 0.3 | 880.8 ± 0.3 | 870.9 ± 0.3
12100 kPa | 903 ± 0.3 | 892.8 ± 0.3 | 882.9 ± 0.3 | 873.1 ± 0.3
14100 kPa | 904.9 ± 0.3 | – | – | 875.1 ± 0.3
14200 kPa | – | 894.7 ± 0.3 | 884.9 ± 0.3 | –
16200 kPa | – | 896.5 ± 0.3 | 886.8 ± 0.3 | 877.2 ± 0.4
16300 kPa | 906.7 ± 0.3 | – | – | –
18300 kPa | – | 898.5 ± 0.3 | 888.8 ± 0.4 | –
18400 kPa | 908.5 ± 0.3 | – | – | 879.3 ± 0.4
20200 kPa | 910.3 ± 0.3 | – | 890.6 ± 0.4 | 881.2 ± 0.4
20400 kPa | – | 900.2 ± 0.3 | – | –

CCCCCCCl [1-chlorohexane]
Conditions | mass density [kg/m3]
288.15 K, 100 kPa | 882.7 ± 0.6
288.15 K, 2000 kPa | 884.4 ± 0.7
288.15 K, 4100 kPa | 886 ± 0.7
288.15 K, 5900 kPa | 887.5 ± 0.8
288.15 K, 8100 kPa | 889.2 ± 0.8
288.15 K, 10100 kPa | 890.7 ± 0.9
288.15 K, 12200 kPa | 892.3 ± 0.9
288.15 K, 14200 kPa | 893.8 ± 0.9
288.15 K, 16200 kPa | 895.2 ± 1
288.15 K, 18200 kPa | 896.7 ± 1
288.15 K, 20200 kPa | 898.3 ± 1.1
298.15 K, 100 kPa | 873.1 ± 0.6
298.15 K, 2000 kPa | 874.8 ± 0.7
298.15 K, 4100 kPa | 876.6 ± 0.7
298.15 K, 6100 kPa | 878.3 ± 0.8
298.15 K, 8100 kPa | 879.9 ± 0.8
298.15 K, 10200 kPa | 881.7 ± 0.9
298.15 K, 12100 kPa | 883.3 ± 0.9
298.15 K, 14200 kPa | 885 ± 1
298.15 K, 16400 kPa | 886.6 ± 1
298.15 K, 18400 kPa | 888.1 ± 1.1
298.15 K, 20200 kPa | 889.6 ± 1.1
308.15 K, 100 kPa | 864.3 ± 0.7
308.15 K, 2000 kPa | 866.1 ± 0.7
308.15 K, 4100 kPa | 868 ± 0.8
308.15 K, 6100 kPa | 869.7 ± 0.8
308.15 K, 8100 kPa | 871.5 ± 0.9
308.15 K, 10200 kPa | 873.3 ± 0.9
308.15 K, 12100 kPa | 875 ± 1
308.15 K, 14200 kPa | 876.7 ± 1
308.15 K, 16200 kPa | 878.3 ± 1.1
308.15 K, 18300 kPa | 879.9 ± 1.1
308.15 K, 20200 kPa | 881.5 ± 1.2
318.15 K, 100 kPa | 855.1 ± 0.7
318.15 K, 2000 kPa | 857 ± 0.7
318.15 K, 4000 kPa | 858.9 ± 0.8
318.15 K, 6100 kPa | 860.9 ± 0.9
318.15 K, 8100 kPa | 862.7 ± 0.9
318.15 K, 10100 kPa | 864.6 ± 1
318.15 K, 11900 kPa | 866.1 ± 1
318.15 K, 14100 kPa | 868.1 ± 1.1
318.15 K, 16100 kPa | 869.9 ± 1.1
318.15 K, 18000 kPa | 871.4 ± 1.2
318.15 K, 20000 kPa | 872.8 ± 1.2

CCCCCCCCCl [1-chlorooctane]
Conditions | mass density [kg/m3]
288.15 K, 100 kPa | 877.3 ± 1.3
288.15 K, 2000 kPa | 878.8 ± 1.3
288.15 K, 4000 kPa | 880.2 ± 1.4
288.15 K, 6000 kPa | 881.6 ± 1.5
288.15 K, 8000 kPa | 883 ± 1.5
288.15 K, 10000 kPa | 884.4 ± 1.6
288.15 K, 11900 kPa | 885.8 ± 1.7
288.15 K, 13900 kPa | 887.1 ± 1.7
288.15 K, 16000 kPa | 888.4 ± 1.8
288.15 K, 18000 kPa | 889.7 ± 1.8
288.15 K, 20100 kPa | 891.2 ± 1.9
298.15 K, 100 kPa | 868.8 ± 1.3
298.15 K, 2000 kPa | 870.2 ± 1.3
298.15 K, 4100 kPa | 871.8 ± 1.4
298.15 K, 6100 kPa | 873.3 ± 1.5
298.15 K, 8100 kPa | 874.8 ± 1.6
298.15 K, 10000 kPa | 876.2 ± 1.6
298.15 K, 12100 kPa | 877.8 ± 1.7
298.15 K, 14200 kPa | 879.3 ± 1.8
298.15 K, 16300 kPa | 880.7 ± 1.8
298.15 K, 18300 kPa | 882.1 ± 1.9
298.15 K, 20200 kPa | 883.4 ± 2
308.15 K, 100 kPa | 861.4 ± 1.3
308.15 K, 2000 kPa | 862.8 ± 1.4
308.15 K, 4000 kPa | 864.4 ± 1.4
308.15 K, 6000 kPa | 865.9 ± 1.5
308.15 K, 7900 kPa | 867.5 ± 1.6
308.15 K, 10100 kPa | 869.1 ± 1.7
308.15 K, 12000 kPa | 870.5 ± 1.7
308.15 K, 14000 kPa | 872 ± 1.8
308.15 K, 15900 kPa | 873.3 ± 1.9
308.15 K, 18000 kPa | 874.8 ± 2
308.15 K, 20000 kPa | 876.5 ± 2
318.15 K, 100 kPa | 852.9 ± 1.3
318.15 K, 2000 kPa | 854.5 ± 1.4
318.15 K, 4000 kPa | 856.2 ± 1.5
318.15 K, 6000 kPa | 857.9 ± 1.5
318.15 K, 8000 kPa | 859.5 ± 1.6
318.15 K, 10000 kPa | 861.2 ± 1.7
318.15 K, 12000 kPa | 862.8 ± 1.8
318.15 K, 14000 kPa | 864.3 ± 1.9
318.15 K, 16000 kPa | 865.8 ± 1.9
318.15 K, 18000 kPa | 867.3 ± 2
318.15 K, 20100 kPa | 868.9 ± 2.1

CC(=O)N(C)C [N,N-dimethylethanamide]
Conditions | mass density [kg/m3]
288.15 K, 100 kPa | 945.7 ± 0.5
288.15 K, 2000 kPa | 946.7 ± 0.5
288.15 K, 4000 kPa | 947.8 ± 0.5
288.15 K, 6000 kPa | 949 ± 0.6
288.15 K, 8100 kPa | 950.1 ± 0.6
288.15 K, 9900 kPa | 951.1 ± 0.6
288.15 K, 12000 kPa | 952.2 ± 0.6
288.15 K, 13900 kPa | 953.2 ± 0.6
288.15 K, 16000 kPa | 954.3 ± 0.6
288.15 K, 18100 kPa | 955.4 ± 0.7
288.15 K, 20000 kPa | 956.5 ± 0.7
298.15 K, 100 kPa | 937 ± 0.5
298.15 K, 2000 kPa | 938.1 ± 0.5
298.15 K, 4100 kPa | 939.4 ± 0.6
298.15 K, 6100 kPa | 940.6 ± 0.6
298.15 K, 8100 kPa | 941.8 ± 0.6
298.15 K, 10000 kPa | 943 ± 0.6
298.15 K, 12100 kPa | 944.1 ± 0.7
298.15 K, 14200 kPa | 945.3 ± 0.7
298.15 K, 16300 kPa | 946.4 ± 0.7
298.15 K, 18400 kPa | 947.5 ± 0.7
298.15 K, 20100 kPa | 948.6 ± 0.7
308.15 K, 100 kPa | 927.9 ± 0.5
308.15 K, 2000 kPa | 929.1 ± 0.6
308.15 K, 4100 kPa | 930.4 ± 0.6
308.15 K, 6100 kPa | 931.6 ± 0.6
308.15 K, 8100 kPa | 932.8 ± 0.6
308.15 K, 10100 kPa | 934 ± 0.7
308.15 K, 12100 kPa | 935.3 ± 0.7
308.15 K, 14200 kPa | 936.5 ± 0.7
308.15 K, 16300 kPa | 937.6 ± 0.7
308.15 K, 18200 kPa | 938.7 ± 0.8
308.15 K, 20200 kPa | 939.9 ± 0.8
318.15 K, 100 kPa | 918.7 ± 0.5
318.15 K, 2000 kPa | 919.8 ± 0.6
318.15 K, 4000 kPa | 921.2 ± 0.6
318.15 K, 6000 kPa | 922.5 ± 0.6
318.15 K, 8000 kPa | 923.8 ± 0.7
318.15 K, 9900 kPa | 925 ± 0.7
318.15 K, 12000 kPa | 926.3 ± 0.7
318.15 K, 14000 kPa | 927.5 ± 0.8
318.15 K, 16000 kPa | 928.7 ± 0.8
318.15 K, 18100 kPa | 930 ± 0.8
318.15 K, 20000 kPa | 931.3 ± 0.8

CN(C)C=O [dimethylformamide]
Conditions | mass density [kg/m3]
288.15 K, 100 kPa | 953.4 ± 0.5
288.15 K, 2100 kPa | 954.5 ± 0.5
288.15 K, 4000 kPa | 955.6 ± 0.5
288.15 K, 6100 kPa | 956.8 ± 0.5
288.15 K, 7900 kPa | 957.8 ± 0.5
288.15 K, 9900 kPa | 958.9 ± 0.6
288.15 K, 12100 kPa | 960.1 ± 0.6
288.15 K, 14000 kPa | 961.2 ± 0.6
288.15 K, 16000 kPa | 962.2 ± 0.6
288.15 K, 18000 kPa | 963.3 ± 0.6
288.15 K, 19800 kPa | 964.3 ± 0.6
298.15 K, 100 kPa | 943.8 ± 0.5
298.15 K, 2000 kPa | 945 ± 0.5
298.15 K, 4100 kPa | 946.2 ± 0.5
298.15 K, 6100 kPa | 947.4 ± 0.6
298.15 K, 8100 kPa | 948.6 ± 0.6
298.15 K, 10100 kPa | 949.8 ± 0.6
298.15 K, 12100 kPa | 951 ± 0.6
298.15 K, 14100 kPa | 952.1 ± 0.6
298.15 K, 16300 kPa | 953.3 ± 0.7
298.15 K, 18300 kPa | 954.3 ± 0.7
298.15 K, 20100 kPa | 955.5 ± 0.7
308.15 K, 100 kPa | 935 ± 0.5
308.15 K, 2000 kPa | 936.2 ± 0.5
308.15 K, 4100 kPa | 937.6 ± 0.6
308.15 K, 6100 kPa | 938.9 ± 0.6
308.15 K, 8100 kPa | 940 ± 0.6
308.15 K, 10100 kPa | 941.2 ± 0.6
308.15 K, 12100 kPa | 942.5 ± 0.7
308.15 K, 14300 kPa | 943.7 ± 0.7
308.15 K, 16300 kPa | 944.9 ± 0.7
308.15 K, 18300 kPa | 946 ± 0.7
308.15 K, 20200 kPa | 947 ± 0.7
318.15 K, 100 kPa | 925.5 ± 0.5
318.15 K, 2100 kPa | 926.9 ± 0.6
318.15 K, 4000 kPa | 928.3 ± 0.6
318.15 K, 6000 kPa | 929.6 ± 0.6
318.15 K, 7900 kPa | 930.8 ± 0.6
318.15 K, 10200 kPa | 932.2 ± 0.7
318.15 K, 12000 kPa | 933.4 ± 0.7
318.15 K, 14000 kPa | 934.5 ± 0.7
318.15 K, 16000 kPa | 935.8 ± 0.7
318.15 K, 18000 kPa | 937 ± 0.8
318.15 K, 20200 kPa | 938.1 ± 0.8
